From ChEMBL document CHEMBL4304811, “Development of a Water-Soluble Indolylmaleimide Derivative IM-93 Showing Dual Inhibition of Ferroptosis and NETosis” (ACS Med Chem Lett, 2019)

Tests used:
[1] = target: Casein kinase II subunit alpha' (Homo sapiens) (UniProt P19784); assay: Binding affinity to wild-type human full length CSNK2A2 (M1 to R350 residues) expressed in mammalian expression system assessed as residual binding level at 10 uM by Kinomescan method relative to control
[2] = system: Proto-oncogene tyrosine-protein kinase receptor Ret (Homo sapiens), P07949 [V804M]; assay: Binding affinity to human partial length RET V804M mutant (E713 to D1014 residues) expressed in bacterial expression system assessed as residual binding level at 10 uM by Kinomescan method relative to control
[3] = target: MAP kinase-activated protein kinase 5 (Homo sapiens) (UniProt Q8IW41); assay: Binding affinity to wild-type human partial length MAPKAPK5 (M1 to D322 residues) expressed in mammalian expression system assessed as residual binding level at 10 uM by Kinomescan method relative to control
[4] = target: Cyclin-dependent kinase 2 (Homo sapiens) (UniProt P24941); assay: Binding affinity to wild-type human full length CDK2 (M1 to L298 residues) expressed in bacterial expression system assessed as residual binding level at 10 uM by Kinomescan method relative to control
[5] = target: Cyclin-dependent kinase 11B (Homo sapiens) (UniProt P21127); assay: Binding affinity to wild-type human partial length CDC2L1 (P353 to G692 residues) expressed in bacterial expression system assessed as residual binding level at 10 uM by Kinomescan method relative to control
[6] = target: Serine/threonine-protein kinase MRCK gamma (Homo sapiens) (UniProt Q6DT37); assay: Binding affinity to wild-type human partial length DMPK2 (S46 to S408 residues) expressed in bacterial expression system assessed as residual binding level at 10 uM by Kinomescan method relative to control
[7] = target: Serine/threonine-protein kinase BRSK1 (Homo sapiens) (UniProt Q8TDC3); assay: Binding affinity to wild-type human partial length BRSK1 (M1 to E754 residues) expressed in bacterial expression system assessed as residual binding level at 10 uM by Kinomescan method relative to control
[8] = target: Non-receptor tyrosine-protein kinase TYK2 (Homo sapiens) (UniProt P29597); assay: Binding affinity to wild-type human partial length TYK2 JH2 pseudokinase domain (G556 to D888 residues) expressed in mammalian expression system assessed as residual binding level at 10 uM by Kinomescan method relative to control
[9] = target: Serine/threonine-protein kinase RIO1 (Homo sapiens) (UniProt Q9BRS2); assay: Binding affinity to wild-type human full length RIOK1 (M1 to K568 residues) expressed in bacterial expression system assessed as residual binding level at 10 uM by Kinomescan method relative to control
NIH3T3 = assay: Inhibition of erastin-induced ferroptosis in mouse NIH/3T3 cells after 24 hrs by WST-8 assay; format: functional, cell-based; conditions: NIH3T3, 24 h
[10] = target: RAC-gamma serine/threonine-protein kinase (Homo sapiens) (UniProt Q9Y243); assay: Binding affinity to wild-type human partial length AKT3 expressed in bacterial expression system assessed as residual binding level at 10 uM by Kinomescan method relative to control
[11] = target: Fibroblast growth factor receptor 3 (Homo sapiens) (UniProt P22607); assay: Binding affinity to wild-type human partial length FGFR3 (R442 to S771 residues) expressed in bacterial expression system assessed as residual binding level at 10 uM by Kinomescan method relative to control
[12] = target: Serine/threonine-protein kinase RIO3 (Homo sapiens) (UniProt O14730); assay: Binding affinity to wild-type human full length RIOK3 (M1 to E519 residues) expressed in bacterial expression system assessed as residual binding level at 10 uM by Kinomescan method relative to control
[13] = target: Mitogen-activated protein kinase kinase kinase 9 (Homo sapiens) (UniProt P80192); assay: Binding affinity to wild-type human partial length MLK1 (V88 to W426 residues) expressed in bacterial expression system assessed as residual binding level at 10 uM by Kinomescan method relative to control
[14] = target: NUAK family SNF1-like kinase 1 (Homo sapiens) (UniProt O60285); assay: Binding affinity to wild-type human partial length ARK5 (E25 to I332 residues) expressed in bacterial expression system assessed as residual binding level at 10 uM by Kinomescan method relative to control
[15] = target: Macrophage colony-stimulating factor 1 receptor (Homo sapiens) (UniProt P07333); assay: Binding affinity to wild-type human partial length autoinhibited CSF1R (Y538 to S939 residues) expressed in mammalian expression system assessed as residual binding level at 10 uM by Kinomescan method relative to control
[16] = target: Homeodomain-interacting protein kinase 3 (Homo sapiens) (UniProt Q9H422); assay: Binding affinity to wild-type human partial length HIPK3 (M153 to N562 residues) expressed in mammalian expression system assessed as residual binding level at 10 uM by Kinomescan method relative to control
[17] = target: Serine/threonine-protein kinase TBK1 (Homo sapiens) (UniProt Q9UHD2); assay: Binding affinity to wild-type human full length TBK1 (M1 to L729 residues) expressed in mammalian expression system assessed as residual binding level at 10 uM by Kinomescan method relative to control
[18] = system: Epidermal growth factor receptor (Homo sapiens), P00533 [UNDEFINED MUTATION]; assay: Binding affinity to human partial length EGFR L747-T751del/Sins mutant expressed in bacterial expression system assessed as residual binding level at 10 uM by Kinomescan method relative to control
[19] = target: Ribosomal protein S6 kinase beta-1 (Homo sapiens) (UniProt P23443); assay: Binding affinity to wild-type human partial length S6K1 (M1 to S421 residues) expressed in mammalian expression system assessed as residual binding level at 10 uM by Kinomescan method relative to control
[20] = system: Proto-oncogene tyrosine-protein kinase receptor Ret (Homo sapiens), P07949 [V804L]; assay: Binding affinity to human partial length RET V804L mutant (E713 to D1014 residues) expressed in bacterial expression system assessed as residual binding level at 10 uM by Kinomescan method relative to control
[21] = target: Peripheral plasma membrane protein CASK (Homo sapiens) (UniProt O14936); assay: Binding affinity to wild-type human partial length CASK (M1 to H315 residues) expressed in mammalian expression system assessed as residual binding level at 10 uM by Kinomescan method relative to control
[22] = target: Platelet-derived growth factor receptor alpha (Homo sapiens) (UniProt P16234); assay: Binding affinity to wild-type human partial length PDGFRA (V575 to D1002 residues) expressed in mammalian expression system assessed as residual binding level at 10 uM by Kinomescan method relative to control
[23] = system: Tyrosine-protein kinase ABL1 (Homo sapiens), P00519 [F317I]; assay: Binding affinity to human phosphorylated ABL1 F317I mutant (S229 to K512 residues) expressed in mammalian expression system assessed as residual binding level at 10 uM by Kinomescan method relative to control
[24] = target: Hormonally up-regulated neu tumor-associated kinase (Homo sapiens) (UniProt P57058); assay: Binding affinity to wild-type human partial length HUNK (A31 to K354 residues) expressed in bacterial expression system assessed as residual binding level at 10 uM by Kinomescan method relative to control

`CC(C)N1C(=O)C(NCCCN(C)C)=C(c2cn(C)c3ccccc23)C1=O.Cl` gave an Activity [1] of 78%, an Activity [2] of 97% and an Activity [3] of 71%. The Activity [4] was 92%, the Activity [5] was 96% and the Activity [6] was 93%. The Activity [7] was 85%, the Activity [8] was 88% and the Activity [9] was 100%. It also gave an IC50 (NIH3T3) of 1.9 µM, an Activity [10] of 99% and an Activity [11] of 100%. For the same compound, the Activity [12] was 100%, the Activity [13] was 100% and the Activity [14] was 94%. For the same compound, the Activity [15] was 87%, the Activity [16] was 90% and the Activity [17] was 73%. For the same compound, the Activity [18] was 94%, the Activity [19] was 77% and the Activity [20] was 90%. The Activity [21] was 92%, the Activity [22] was 86% and the Activity [23] was 87%. For the same compound, the Activity [24] was 100%.
